Measurements taken from patent publication US20080195033A1, “Method of Delivery of Therapeutic Metal Ions, Alloys and Salts” (INTERNATIONAL BIO-THERAPEUTIC RESEARCH INC., priority 2004, published 2008).

Experiments:
[1] = tested on: HIVIIIB in CEM-SS cells (p24 antigen); assay: HIV p24 antigen in culture supernatant by antigen capture assay; assay type: cell-based, HIV-1
Protocol: (§1) In one test performed according to the invention, infection studies were carried out in a Level III facility in vitro using HIV-infected and noninfected cells. To establish infection, a viral dose of MOI 0.5 was added to a culture flask. The supernatants of control and test flasks were tested for the presence of the p24 antigen. Cells were then incubated in the presence and absence of silver ions produced by passing current through a sterile silver electrode present in the culture flask. Current was applied for 0, 1, 5, 10 and 30 minutes after incubation of virus with the cells. Cells were then be maintained in culture for 7 days and the concentration of p24 antigen in the supernatant was determined.
(§2) The cells used for such studies were CEM-SS cultured human lymphoblasts to allow detection and monitoring of HIV-induced synceytium. Cells were grown in enriched RPMI medium (20% fetal calf serum; FCS) and maintained in a 5% CO2 enriched tissue culture incubator at 37 degrees Celsius. Infection was conducted at a Multiplicity Dose of 0.5 using HIVIIIB prepared from previously infected CEM-SS stock suspensions.
(§3) In this test performed according to the invention, a silver catheter was introduced by drill into the tissue culture flask, sealed and the flask was then gas-sterilized. Silver ions were generated by connecting the silver electrode to a purpose-built device designed by one of the investigators (RE) powered by a 9 volt battery and designed to generate a steady current of 1.0 milliamp.
(§4) Cell viability was determined using trypan blue dye exclusion. The HIV p24 antigen concentrations in the culture supernatants were determined using an antigen capture assay.
(§5) Each experiment was performed in triplicate and repeated three times. Differences between cells exposed and unexposed to silver ions were compared by analysis of variance.

[2] = tested on: CEM-SS infected with HIVIIIB; assay: Cell viability of HIV-infected CEM-SS cells by trypan blue dye exclusion; assay type: cell-based, HIV-1; settings: 1.0 mA; for Cell Viability, HIV-Infected Cells: 7 days post exposure
Protocol: as §1, §2, §3, §4, §5

Substance: silver ions
- Change in p24 antigen (in words) ([1]; after 10 minutes of 1.0 mA current flow): decline
- Decline in the concentration of p24 antigen in HIV-exposed cultures ([1]; over thirty minutes, 1.0 mA, p<0.05): 56%
- Change in p24 concentration (in words) ([1]; silver ion incubation for five minutes): initial increase
- Increase in cell viability of infected cells compared to similar cells not subjected to the silver ion treatment ([2]; 10 minutes of silver ion exposure): greater than 25%
- Cell Viability, HIV-Infected Cells ([2]; five minute treatment): 45% alive
- Cell Viability, HIV-Infected Cells ([2]; one minute treatment): 37% alive
- Cell Viability, HIV-Infected Cells ([2]; one minute treatment, listed as Silver Ions): 37%
- Cell Viability, HIV-Infected Cells ([2]; ten minute treatment): 54% alive
- Cell Viability, HIV-Infected Cells ([2]; ten minute treatment, listed as Silver Ions): 54%
- Cell Viability, HIV-Infected Cells ([2]; thirty minute treatment): 28% alive
